Measured values from patent publication US7635686B2, “Therapeutically useful triethyleneglycol cholesteryl oligonucleotides” (Bioniche Life Sciences, Inc., priority 2001, dated 2009).
{TEG-Chol} = cholesteryl attached through a triethylene glycol (TEG) linker

Assays:
[1] = system: EL-4 cells; assay: Apoptosis by phosphatidylserine redistribution (annexin V flow cytometry) in EL-4 cells; assay type: cell-based, murine; settings: 24 hours; for Percentage of positive cells for phosphatidylserine (cells in apoptosis) in EL-4 cells: untreated cells 7%
Protocol: (§1) Redistribution of plasma membrane phosphatidylserine is a characteristic of cells undergoing apoptosis (Martin et al., J. Exp. Med., 182:1545, 1995). The redistribution of phosphatidylserine in the plasma membrane during apoptosis was measured by flow cytometry using FITC (fluorescein isothiocyanate)-conjugated annexin V (BD Pharmingen, San Diego, Calif.). MEG-01 cells, a human chronic myelogeneous leukemia cell line positive for the Philadelphia chromosome and having a BCR-ABL gene fusion, were incubated at 2.5×10^5 cells/ml for 48 hours with 5.3, 26.5 and 53.0 μM final concentrations of SEQ ID NO:1, SEQ ID NO:2, SEQ ID NO:5, SEQ ID NO:6 and cholesteryl-TEG phosphoramidite molecule. The percentage of cells in apoptosis after exposure to the SEQ ID NOs:1, 2, 5, 6, or cholesteryl-TEG phosphoramidite treatment is reported in Table 2. The percentage of apoptosis in untreated MEG-01 cells was 12%.
EL-4 cells, a murine T lymphoma cell line, were incubated at 2.5×10^5 cells/ml for 24 hours with 0.53, 5.3 and 53.0 μM concentrations of SEQ ID NO:3, SEQ ID NO:7 or cholesteryl-TEG phosphoramidite. The percentage of cells in apoptosis after exposure to SEQ ID NO:3, SEQ ID NO:7 or cholesteryl-TEG phosphoramidite treatment is reported in Table 3. The percentage of apoptosis in untreated EL-4 cells was 7%.

[2] = system: MDA-MB-231 (MDA-231) cells; assay: Treatment of pre-formed 3-dimensional MDA-231 structures on MATRIGEL; assay type: cell-based, human; settings: MDA-231, 53 μM, repeated every 3-4 days up to 17-21 days, FIG. 4
Protocol: The MDA-MB-231 (MDA-231) cells were cultured in regular culture medium, trypsinized and counted. 100×10^3 of MDA-231 cells were plated in regular culture medium (RCM), in wells of 24-well plates coated with 350 μl of MATRIGEL®. After the formation of 3-dimensional structures during 48 hrs without any treatment, the medium was changed, and structures were exposed to a final concentration of 53 μM of SEQ ID NO:3, 53 μM of SEQ ID NO:7, 53 μM of cholesteryl-TEG phosphoramidite, RCM, or their respective control media (RCM with water, RCM with DMSO or RCM with acetonitrile). The treatments were repeated every 3-4 days until a maximum time in culture of 17-21 days. The experiment was repeated three times. Digital photographs of the cells in the 24-well plates were taken using a Nikon Coolpix 990 digital camera connected to a Nikon inverted microscope model TMS.

[3] = system: MEG-01 cells; assay: Apoptosis by phosphatidylserine redistribution (FITC-annexin V flow cytometry) in MEG-01 cells; assay type: cell-based, human; settings: 48 hours; for Percentage of positive cells for phosphatidylserine (cells in apoptosis) in MEG-01 cells: untreated cells 12%
Protocol: as §1

[4] = system: Hs578T cells; assay: Cell cycle progression in Hs578T multicellular spheroids (PI staining); assay type: cell-based, human; settings: 53 μM, 72 hrs, FIG. 5
Protocol: Multicellular spheroids (MS) is an example of a special in vitro assay, in which tumor cells are cultured in a 3-dimensional manner to form a “tumor-like” structure. In this system, there is a reinforcement of cell-cell interactions that mimic microenvironmental conditions of malignant cells in solid tumors in vivo. In this type of assay, no extracellular matrix components are added. Cells cultured in this MS system differ from those in 2-dimensional systems (monolayer culture conditions). Some of these differences are related to structural and functional differentiation of tumor cells, changes in the cell cycle of tumor cells, “multicellular drug resistance”, and changes in the diffusion and penetration of drugs throughout layers of tumor cells (reviewed in Green et al., Anticancer Drug Des. 14:153, 1999).
About 100×10^3 Hs578T cells per spheroid were cultured in presence of 53 μM final concentration of SEQ ID NO:3, SEQ ID NO:7, 53 μM final concentration of cholesteryl-TEG phosphoramidite (cholTEG) or corresponding control media (regular culture medium (RCM), RCM with the same amount of water (RCMW) as the amount added with the SEQ ID NO:7, and RCM with the same amount of acetonitrile (RCMA) as the amount added with cholesteryl-TEG phosphoramidite). Five spheroids per each experimental condition were cultured for 72 hrs. Afterwards, cell cycle progression was evaluated by propidium iodide (PI) staining (Calbiochem, Novabiochem Corporation, San Diego, Calif.) using a FACScalibur flow cytometer (Becton Dickinson, Franklin Lakes, N.J.). Changes in the percentage of cells in the different phases of the cell cycle were analyzed using MODFIT LT software (Verity Software House Inc).

[5] = system: MDA-MB-231 (MDA-231) cells; assay: Cellular proliferation of MDA-231 cells (Trypan blue exclusion count); assay type: cell-based, human; settings: MDA-231, 53 μM
Protocol: (§2) Either 20×10^3 MDA-MB-231 (MDA-231) or Hs578T cells were plated into individual wells of 24-well plates in regular culture medium (RCM) presence or absence (control) of 53 μM (final concentration) of SEQ ID NO:3, SEQ ID NO:7, 53 μM cholesteryl-TEG phosphoramidite, or corresponding control media (regular culture medium (RCM) for SEQ ID NO:3, RCM with the same amount of water as the amount added with the SEQ ID NO:7, and RCM with the same amount of acetonitrile as the amount added with cholesteryl-TEG phosphoramidite). Cells were cultured for 72 hrs, removed with trypsin and counted with an hemocytometer using the Trypan blue exclusion technique. Results of three independent assays (mean and standard deviation (s.d.) of percentage of changes compared to controls) are shown in Table 9.

[6] = system: Hs578T cells; assay: Cellular proliferation of Hs578T cells (Trypan blue exclusion count); assay type: cell-based, human; settings: 53 μM
Protocol: as §2

[7] = system: MCF-7 cells; assay: Treatment of pre-formed 3-dimensional MCF-7 structures on MATRIGEL; assay type: cell-based, human; settings: MCF-7, 53 μM, repeated every 3-4 days up to 19-20 days, FIG. 3
Protocol: MCF-7 cells were cultured in regular culture medium (RCM), trypsinized and counted. 150×10^3 of MCF-7 cells, in wells of 24-well plates coated with 350 μl of MATRIGEL®. After the formation of 3-dimensional structures during 48 hrs without any treatment, the medium was changed and the structures were exposed to a final concentration of 53 μM of SEQ ID NO:3, 53 μM of SEQ ID NO:7, 53 μM of cholesteryl-TEG phosphoramidite, RCM or their respective control media (RCM with water, RCM with DMSO, or RCM with acetonitrile). The treatments were repeated every 3-4 days until a maximum time in culture of 19-20 days. The experiment was repeated three times. Digital photographs of the cells in the 24-well plates were taken using a Nikon Coolpix 990 digital camera connected to a Nikon inverted microscope model TMS.

[8] = system: Hs578T cells; assay: MATRIGEL outgrowth after 1 hr pre-incubation, Hs578T; assay type: cell-based, human; settings: 53 μM pre-incubation 1 hr, 3 days on MATRIGEL, FIG. 1 and FIG. 2
Protocol: (§3) Various in vitro and in vivo assays may be used to evaluate the influence of the extracellular microenvironment on behavior of normal cells and tumor cells. Such assays may employ MATRIGEL® (Becton Dickinson, Franklin Lakes, N.J.), which is a solubilized basement membrane preparation extracted from the Engelbreth-Holm-Swarm murine sarcoma.
(§4) MCF-7, MDA-MB-231 (MDA-231), Hs578T and Mpanc-96 cells were cultured separately in regular culture medium, trypsinized, and counted. 100×10^3 of MDA-231 cells, 100×10^3 of Hs578T cells, 150×10^3 of MCF-7 cells and 150×10^3 of Mpanc-96 cells were separately pre-incubated for 1 hr at 37° C. in a final concentration of 53 μM of SEQ ID NO:1, 53 μM of SEQ ID NO:5 or RCM, and plated on top of MATRIGEL®-coated plates (MATRIGEL® Basement membrane matrix coated cellware 24-well plate,) for 3 days. Plates were fixed with 10% formalin. Digital photographs of the cells in the 24-well plates were taken using a Nikon Coolpix 990 digital camera (Nikon Corporation, Tokyo, Japan) connected to a Nikon inverted microscope model TMS.
(§5) MDA-MB-231 (MDA-231) and Hs578T were cultured in regular culture medium, trypsinized and counted. 100×10^3 of MDA-MB-231 cells or 100×10^3 of Hs578T cells, were separately pre-incubated for 1 hr at 37° C. in a final concentration of 53 μM of SEQ ID NO:4, 53 μM of SEQ ID NO:8 or RCM and plated on MATRIGEL®-coated plates for 3 days. Plates were fixed with 10% formalin. Digital photographs of the cells in the 24-well plates were taken using a Nikon Coolpix 990 digital camera (Nikon Corporation, Tokyo, Japan) connected to a Nikon inverted microscope model TMS.

[9] = system: MDA-MB-231 (MDA-231) cells; assay: MATRIGEL outgrowth after 1 hr pre-incubation, MDA-231; assay type: cell-based, human; settings: MDA-231, 53 μM pre-incubation 1 hr, 3 days on MATRIGEL, FIG. 1 and FIG. 2
Protocol: as §3, §4, §5

[10] = system: HIG-82 cells; assay: HIG-82 synovial cell proliferation (MTT reduction); assay type: cell-based, rabbit; settings: 53 μM, 48 hours; for Inhibition of HIG-82 cell proliferation, inhibition (%): MTT
Protocol: Adherent HIG-82 cells, a synovial cell line, were incubated at 10×10^5 cells/ml for 48 hours with 53 μM (final concentration) of SEQ ID NO:2, SEQ ID NO:3, SEQ ID NO:4, SEQ ID NO:6, SEQ ID NO:7, or SEQ ID NO:8. Cellular proliferation was measured using dimethylthiazol-diphenyl-tetrazolium (MTT) reduction (Mosman et al., J. Immunol. Methods 65:55, 1983). MTT was measured at a wavelength of 570 nm using a multiple spectrophotometer reader (ELX800, Bio-TEK, Instruments Inc., Winooski, Vt.). The percentage of inhibition, calculated as […]

[11] = translocation of phosphatidylserine, up to 53.0 μM
[12] = cultured for 3 days, + stimulation, − inhibition, three independent assays

Row | Molecule | Percentage of positive cells for phosphatidylserine (cells in apoptosis) in EL-4 cells ([1]; 0.53 μM) [%] | Percentage of positive cells for phosphatidylserine (cells in apoptosis) in EL-4 cells ([1]; 5.3 μM) [%] | Percentage of positive cells for phosphatidylserine (cells in apoptosis) in EL-4 cells ([1]; 53.0 μM) [%] | Induction of apoptosis in EL-4 cells (in words) [1, 11] | Effect on pre-formed 3-dimensional structures on MATRIGEL [2] | Percentage of positive cells for phosphatidylserine (cells in apoptosis) in MEG-01 cells ([3]; 5.3 μM) [%] | Percentage of positive cells for phosphatidylserine (cells in apoptosis) in MEG-01 cells ([3]; 26.5 μM) [%] | Percentage of positive cells for phosphatidylserine (cells in apoptosis) in MEG-01 cells ([3]; 53.0 μM) [%] | Induction of apoptosis in MEG-01 cells (in words) [3, 11] | Cell cycle progression in multicellular spheroids [4] | Effect on cellular proliferation (in words) ([5]; 72 hrs) | Percentage of changes in cellular proliferation compared to controls (mean ± s.d.) [5, 12] [%] | Effect on cellular proliferation (in words) ([6]; 72 hrs) | Percentage of changes in cellular proliferation compared to controls (mean ± s.d.) [6, 12] | Effect on pre-formed 3-dimensional structures on MATRIGEL [7] | Formation of 3-dimensional structures / cell morphology on MATRIGEL [8] | Formation of 3-dimensional structures / cell morphology on MATRIGEL [9] | Inhibition of proliferation of synovial HIG-82 cells (in words) [10] | Inhibition of HIG-82 cell proliferation, inhibition (%) [10] [%]
1 | COc1ccc(C(OCC(COCCOCCOCCOCCCNC(=O)O[C@H]2CC[C@@]3(C)C(=CC[C@H]4[C@@H]5CC[C@H]([C@H](C)CCCC(C)C)[C@@]5(C)CC[C@@H]43)C2)OP(OCCC#N)N(C(C)C)C(C)C)(c2ccccc2)c2ccc(OC)cc2)cc1 (some centres unmarked) [cholesteryl-TEG phosphoramidite] | 7 | 7 | 7 | neither SEQ ID NO:3 nor cholesteryl-TEG phosphoramidite caused apoptosis | did not affect the 3-dimensional structures | 12 | 12 | 12 | inactive | did not significantly modify cell cycle progression | did not significantly affect cellular proliferation | −2.3 ± 15.9 | did not significantly affect cellular proliferation | +13 ± 9.2% | did not affect the 3-dimensional structures |  |  |  | 
2 | 5′OH-GTG(TEG-cholesteryl) 3′ (3' {TEG-Chol}, sugars by position and backbone not given here) [SEQ ID NO:8, 5′-OH, 3′-TEG cholesteryl synthetic oligonucleotide] |  |  |  |  |  |  |  |  |  |  |  |  |  |  |  | disrupted the growth pattern | disrupted the growth pattern | capacity to inhibit the cellular proliferation | 64
3 | 5′ OH-GTG-OH 3′ (listed as DNA, chemistry not fully specified) [SEQ ID NO:4] |  |  |  |  |  |  |  |  |  |  |  |  |  |  |  | did not change the cellular morphology | did not change the cellular morphology | did not inhibit proliferation | −7
